The assay deals with T1, TNKS1 (Homo sapiens, UniProt O95271).
T1 construct: purchased BPS Bioscience, San Diego, USA 80579 (TNKS1 Histone Ribosylation Assay Kit)
T1 sequence (O95271 1-1327): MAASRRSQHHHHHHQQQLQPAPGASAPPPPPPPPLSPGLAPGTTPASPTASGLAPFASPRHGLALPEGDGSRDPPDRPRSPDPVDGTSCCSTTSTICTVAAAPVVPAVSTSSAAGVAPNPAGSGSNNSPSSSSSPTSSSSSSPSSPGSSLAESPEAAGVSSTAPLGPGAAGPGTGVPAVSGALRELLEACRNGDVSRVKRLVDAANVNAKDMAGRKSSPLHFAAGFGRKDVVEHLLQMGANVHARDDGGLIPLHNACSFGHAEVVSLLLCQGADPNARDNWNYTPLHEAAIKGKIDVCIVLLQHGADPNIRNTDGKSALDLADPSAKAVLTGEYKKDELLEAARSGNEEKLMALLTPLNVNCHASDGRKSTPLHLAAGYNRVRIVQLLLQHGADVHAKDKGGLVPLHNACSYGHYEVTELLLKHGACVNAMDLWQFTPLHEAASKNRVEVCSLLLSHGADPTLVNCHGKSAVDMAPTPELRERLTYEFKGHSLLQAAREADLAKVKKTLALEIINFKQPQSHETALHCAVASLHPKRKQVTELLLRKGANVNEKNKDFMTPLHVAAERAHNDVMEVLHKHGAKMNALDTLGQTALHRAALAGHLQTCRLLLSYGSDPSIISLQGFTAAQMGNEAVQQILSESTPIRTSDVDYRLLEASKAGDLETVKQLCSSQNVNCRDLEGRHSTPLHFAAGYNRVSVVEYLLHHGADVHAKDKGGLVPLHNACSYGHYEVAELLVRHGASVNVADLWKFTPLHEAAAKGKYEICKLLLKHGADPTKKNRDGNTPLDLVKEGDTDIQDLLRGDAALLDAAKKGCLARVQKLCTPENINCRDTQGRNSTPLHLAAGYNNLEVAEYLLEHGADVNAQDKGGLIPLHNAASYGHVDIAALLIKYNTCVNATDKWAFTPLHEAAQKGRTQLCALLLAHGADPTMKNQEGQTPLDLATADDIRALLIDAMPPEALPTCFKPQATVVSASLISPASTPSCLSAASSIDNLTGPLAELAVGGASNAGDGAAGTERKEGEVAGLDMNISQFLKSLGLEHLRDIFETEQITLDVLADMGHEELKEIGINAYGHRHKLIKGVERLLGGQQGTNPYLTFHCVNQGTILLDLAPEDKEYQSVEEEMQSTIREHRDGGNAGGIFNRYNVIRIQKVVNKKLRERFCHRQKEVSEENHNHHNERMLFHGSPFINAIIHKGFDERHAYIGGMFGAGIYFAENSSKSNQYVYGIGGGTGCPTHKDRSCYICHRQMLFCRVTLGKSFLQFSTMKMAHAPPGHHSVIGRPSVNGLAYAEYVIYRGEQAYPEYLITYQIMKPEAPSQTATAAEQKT
Nature of the assay: TNKS1 Assay B (auto-parsylation, [3H]-NAD+ SPA). The assay is classed as biochemical. The note with it: 6 nM TNKS1, auto-parsylation, over night at room temperature.

SMILES strings stand for the structures.

Data on 23 molecules can be found in patent publication US20180148418A1, “AMIDO-SUBSTITUTED CYCLOHEXANE DERIVATIVES” (Bayer Pharma Aktiengesellschaft, priority 2015, published 2018).

`CC(C)NCCNC(=O)c1nc[nH]c1C(=O)N[C@H]1CC[C@H](C(=O)Nc2ccc(F)cc2Cl)CC1` [Example 77, N^5-{trans-4-[(2-chloro-4-fluorophenyl)carbamoyl]cyclohexyl}-N^4-[2-(isopropylamino)ethyl]-1H-imidazole-4,5-dicarboxamide] gave a concentration for half-maximal inhibition (IC50) of 37 nM. The same measure for `O=C(NCC1CCCO1)c1nc[nH]c1C(=O)N[C@H]1CC[C@H](C(=O)Nc2ccc(F)cc2Cl)CC1` (stereo partly drawn) [Example 78, N^5-{trans-4-[(2-chloro-4-fluorophenyl)carbamoyl]cyclohexyl}-N^4-(tetrahydrofuran-2-ylmethyl)-1H-imidazole-4,5-dicarboxamide]: 75 nM; for `O=C(NC[C@@H]1CCCO1)c1nc[nH]c1C(=O)N[C@H]1CC[C@H](C(=O)Nc2ccc(F)cc2Cl)CC1` [Example 79, N^5-{trans-4-[(2-chloro-4-fluorophenyl)carbamoyl]cyclohexyl}-N^4-[(2S)-tetrahydrofuran-2-ylmethyl]-1H-imidazole-4,5-dicarboxamide]: 170 nM.

Regarding `O=C(NC[C@H]1CCCO1)c1nc[nH]c1C(=O)N[C@H]1CC[C@H](C(=O)Nc2ccc(F)cc2Cl)CC1` [Example 80, N^5-{trans-4-[(2-chloro-4-fluorophenyl)carbamoyl]cyclohexyl}-N^4-[(2R)-tetrahydrofuran-2-ylmethyl]-1H-imidazole-4,5-dicarboxamide], the IC50 was determined as 62 nM. The same measure for `COC(C)CNC(=O)c1nc[nH]c1C(=O)N[C@H]1CC[C@H](C(=O)Nc2ccc(F)cc2Cl)CC1` (stereo partly drawn) [Example 81, N^5-{trans-4-[(2-chloro-4-fluorophenyl)carbamoyl]cyclohexyl}-N^4-(2-methoxypropyl)-1H-imidazole-4,5-dicarboxamide]: 100 nM; for `COCC(C)NC(=O)c1nc[nH]c1C(=O)N[C@H]1CC[C@H](C(=O)Nc2ccc(F)cc2Cl)CC1` (stereo partly drawn) [Example 82, N^5-{trans-4-[(2-chloro-4-fluorophenyl)carbamoyl]cyclohexyl}-N^4-(1-methoxypropan-2-yl)-1H-imidazole-4,5-dicarboxamide]: 300 nM.

Molecule `COC[C@H](C)NC(=O)c1nc[nH]c1C(=O)N[C@H]1CC[C@H](C(=O)Nc2ccc(F)cc2Cl)CC1` [Example 83, N^5-{trans-4-[(2-chloro-4-fluorophenyl)carbamoyl]cyclohexyl}-N^4-[(2S)-1-methoxypropan-2-yl]-1H-imidazole-4,5-dicarboxamide] gave an IC50 of 610 nM. The molecule `COC[C@@H](C)NC(=O)c1nc[nH]c1C(=O)N[C@H]1CC[C@H](C(=O)Nc2ccc(F)cc2Cl)CC1` [Example 84, N^5-{trans-4-[(2-chloro-4-fluorophenyl)carbamoyl]cyclohexyl}-N^4-[(2R)-1-methoxypropan-2-yl]-1H-imidazole-4,5-dicarboxamide] showed a half-maximal inhibitory concentration (IC50) of 370 nM. Take `COC(C)(C)CNC(=O)c1nc[nH]c1C(=O)N[C@H]1CC[C@H](C(=O)Nc2cc(F)c(F)cc2Cl)CC1` [Example 85, N^5-{trans-4-[(2-chloro-4,5-difluorophenyl)carbamoyl]cyclohexyl}-N^4-(2-methoxy-2-methylpropyl)-1H-imidazole-4,5-dicarboxamide]: the IC50 came to 49 nM.

Regarding `O=C(NCC1CCCO1)c1nc[nH]c1C(=O)N[C@H]1CC[C@H](C(=O)Nc2cc(F)c(F)cc2Cl)CC1` (stereo partly drawn) [Example 86, N^5-{trans-4-[(2-chloro-4,5-difluorophenyl)carbamoyl]cyclohexyl}-N^4-(tetrahydrofuran-2-ylmethyl)-1H-imidazole-4,5-dicarboxamide], the IC50 came out at 30 nM. In the case of `COCC(C)NC(=O)c1nc[nH]c1C(=O)N[C@H]1CC[C@H](C(=O)Nc2cc(F)c(F)cc2Cl)CC1` (stereo partly drawn) [Example 87, N^5-{trans-4-[(2-chloro-4,5-difluorophenyl)carbamoyl]cyclohexyl}-N^4-(1-methoxypropan-2-yl)-1H-imidazole-4,5-dicarboxamide] it was 27 nM.

In turn, `CNC(=O)c1nc[nH]c1C(=O)N[C@H]1CC[C@H](C(=O)Nc2cc(N3CCOCC3)ccc2Cl)CC1` [Example 88, N^5-(trans-4-{[2-chloro-5-(morpholin-4-yl)phenyl]carbamoyl}cyclohexyl)-N^4-methyl-1H-imidazole-4,5-dicarboxamide] gave an IC50 of 3600 nM. For the molecule `O=C(NCC1CCCO1)c1nc[nH]c1C(=O)N[C@H]1CC[C@H](C(=O)Nc2cc(N3CCOCC3)ccc2Cl)CC1` (stereo partly drawn) [Example 89, N^5-(trans-4-{[2-chloro-5-(morpholin-4-yl)phenyl]carbamoyl}cyclohexyl)-N^4-(tetrahydrofuran-2-ylmethyl)-1H-imidazole-4,5-dicarboxamide], the IC50 worked out at 1200 nM. Consider `COC(C)(C)CNC(=O)c1nc[nH]c1C(=O)N[C@H]1CC[C@H](C(=O)Nc2cc(N3CCOCC3)ccc2Cl)CC1` [Example 90, N^5-(trans-4-{[2-chloro-5-(morpholin-4-yl)phenyl]carbamoyl}cyclohexyl)-N^4-(2-methoxy-2-methylpropyl)-1H-imidazole-4,5-dicarboxamide], for which it took 3100 nM to reach half-maximal inhibition (IC50). On to `CC(C)(O)CNC(=O)c1nc[nH]c1C(=O)N[C@H]1CC[C@@]2(CCN(c3cccc(Cl)c3)C2=O)CC1` [Example 284, N^5-[(trans)-2-(3-chlorophenyl)-1-oxo-2-azaspiro[4.5]dec-8-yl]-N^4-(2-hydroxy-2-methylpropyl)-1H-imidazole-4,5-dicarboxamide], for which the IC50 was found to be 650 nM. The same measure for `COCC(C)NC(=O)c1nc[nH]c1C(=O)N[C@H]1CC[C@@]2(CCN(c3cccc(Cl)c3)C2=O)CC1` (stereo partly drawn) [Example 285, N^5-[(trans)-2-(3-chlorophenyl)-1-oxo-2-azaspiro[4.5]dec-8-yl]-N^4-(1-methoxypropan-2-yl)-1H-imidazole-4,5-dicarboxamide]: 630 nM. Regarding `O=C(N[C@H]1CC[C@@]2(CCN(c3cccc(Cl)c3)C2=O)CC1)c1[nH]cnc1C(=O)N1CCOCC1` [Example 286, N-[(trans)-2-(3-chlorophenyl)-1-oxo-2-azaspiro[4.5]dec-8-yl]-4-(morpholin-4-ylcarbonyl)-1H-imidazole-5-carboxamide], it took 8600 nM to reach half-maximal inhibition (IC50).

Molecule `CNC(=O)c1nc[nH]c1C(=O)N[C@H]1CC[C@@]2(CCN(c3cc(C)c(F)cc3Cl)C2=O)CC1` [Example 288, N^5-[(trans)-2-(2-chloro-4-fluoro-5-methylphenyl)-1-oxo-2-azaspiro[4.5]dec-8-yl]-N^4-methyl-1H-imidazole-4,5-dicarboxamide] yielded an IC50 of 6.7 nM. In the case of `CCNC(=O)c1nc[nH]c1C(=O)N[C@H]1CC[C@@]2(CCN(c3cc(C)c(F)cc3Cl)C2=O)CC1` [Example 289, N^5-[(trans)-2-(2-chloro-4-fluoro-5-methylphenyl)-1-oxo-2-azaspiro[4.5]dec-8-yl]-N^4-ethyl-1H-imidazole-4,5-dicarboxamide] it was 8.7 nM. In the case of `Cc1cc(N2CC[C@]3(CC[C@@H](NC(=O)c4[nH]cnc4C(=O)NCCN4CCC(C)CC4)CC3)C2=O)c(Cl)cc1F` [Example 290, N^5-[(trans)-2-(2-chloro-4-fluoro-5-methylphenyl)-1-oxo-2-azaspiro[4.5]dec-8-yl]-N^4-[2-(4-methylpiperidin-1-yl)ethyl]-1H-imidazole-4,5-dicarboxamide] it was 6.2 nM; in that of `Cc1cc(N2CC[C@]3(CC[C@@H](NC(=O)c4[nH]cnc4C(=O)NCC(F)(F)F)CC3)C2=O)c(Cl)cc1F` [Example 297, N^5-[(trans)-2-(2-chloro-4-fluoro-5-methylphenyl)-1-oxo-2-azaspiro[4.5]dec-8-yl]-N^4-(2,2,2-trifluoroethyl)-1H-imidazole-4,5-dicarboxamide], 10 nM; in that of `O=C(N[C@H]1CC[C@@]2(CCN(c3cc(F)c(F)cc3Cl)C2=O)CC1)c1cnc2cccnn12` [Example 298, N-[(trans)-2-(2-chloro-4,5-difluorophenyl)-1-oxo-2-azaspiro[4.5]dec-8-yl]imidazo[1,2-b]pyridazine-3-carboxamide], 6.1 nM. In the case of `Cc1cc(C)n2ncc(C(=O)N[C@H]3CC[C@@]4(CCN(c5cc(F)c(F)cc5Cl)C4=O)CC3)c2n1` [Example 299, N-[(trans)-2-(2-chloro-4,5-difluorophenyl)-1-oxo-2-azaspiro[4.5]dec-8-yl]-5,7-dimethylpyrazolo[1,5-a]pyrimidine-3-carboxamide] it was 7.1 nM.

As a reminder, the IC50 is the concentration needed to halve the response being measured. Low readings indicate higher potency, high ones lower potency.
